Experimental data from patent publication US20140261474A1, “METHODS FOR INHALATION OF SMOKE-FREE NICOTINE” (priority 2013, published 2014).
Read-outs that look alike come from different tables or passages of the source.

Assays:
[1] = test system: healthy volunteers (two ex-smokers and one non-smoker); settings: in vivo
[2] = from cigarettes containing 6 to 11 mg of nicotine; cited from earlier work
smokers = settings: nicotine containing droplets delivered to the alveolar region; cited from earlier work

With `CN1CCCC1c1cccnc1.O=C(O)C(O)C(O)C(=O)O` (stereo not shown) [Nicotine Bitartrate, Nicotine bitartrate] the Adverse effects ([1]; pH 2.9) was “Slight”, the “Comment (sensory perceptions and effects)” value ([1]; pH 3) was “No taste, buzz” and the Adverse effects ([1]; pH 3.2) was “Slight”. The “Comment (sensory perceptions and effects)” value ([1]; pH 3.2) was “No taste, buzz” and the “Presence/Intensity of “buzz”” value ([1]; pH 3.2) was “None”.

For `CN1CCC[C@H]1c1cccnc1` [nicotine, S-3-(1-methyl-2-pyrrolidinyl)pyridine], the “nicotine the smoker typically absorbs” value [2] is listed as 1 to 3 mg and the craving for cigarettes (smokers) is listed as “very rapid and sustained reduction of craving for cigarettes”.
